Results taken from ChEMBL document CHEMBL1142392, “Synthesis and analysis of a fluorinated product analogue as an inhibitor for 1-deoxy-D-xylulose 5-phosphate reductoisomerase” (Bioorg Med Chem Lett, 2008).
The source made the active and inactive calls. No cut-off for these calls is given here.

Assay: Inactivation of DXR

## C[C@@](CO)(CF)[C@H](O)COP(=O)(O)O
  Activity: Active
